# Experiments:
# [1] = tested on: Thoracic aortic rings; test: Thoracic aortic rings assay (Example 19a; IBMX as 100% inhibition); settings: compound at 10 μM; rat thoracic aortic rings contracted with 100 ng/mL phenylephrine; read-out: Percent Relaxation at 10 μM
# Method: Thoracic aortic rings were dissected from anesthetized (isoflurane) male Sprague-Dawley rats weighing 275-299 g. Tissues were immediately transferred to ice-cold Krebs-Henseleit solution, which had been aerated with 95% O2 and 5% CO2 for 30 minutes. Following removal of connective tissue, aortic sections were cut into 4 rings (˜2 mm each) and suspended on 2 L-shaped hooks, with one hook fixed at the bottom of the tissue bath (Schuler Organ Bath, Harvard Apparatus) and the other connected to a force transducer (F30 Force Transducer, Harvard Apparatus). Baths contained Krebs Henseleit solution (10 mL) heated to 37° C. and aerated with 95% O2 and 5% CO2. Rings were brought to an initial tension of 0.3-0.5 g and gradually raised to a resting tension of 1.0 g over 60 minutes. Rings were rinsed with Krebs Henseleit solution (heated to 37° C. and aerated with 95% O2 and 5% CO2) at 15 minute intervals until a stable baseline was obtained. Rings were considered to be stable after a resting tension of 1.0 g was maintained (for approximately 10 minutes) without need for adjustment. Rings were then contracted with 100 ng/mL phenylephrine by adding 100 uL of a 10 μg/mL phenylephrine stock solution. Tissues achieving a stable contraction were then treated in a cumulative, dose dependent manner with test compounds prepared in dimethylsulfoxide (DMSO). In some cases, tissues were rinsed three times over a 5 minute period with Krebs-Heinseleit's solution (heated to 37° C. and aerated with 95% O2 and 5% CO2), allowed to stabilize at baseline, and then used for characterization of other test articles or DMSO effects. All data were collected using the HSE-ACAD software provided by Harvard Apparatus. […] EC50 values were calculated from concentration-response curves generated with GraphPad Prism Software.
# [2] = biological target: T1, soluble guanylate cyclase (sGC) (Homo sapiens (Human), UniProt Q02108+Q02153); test: sGC-HEK-cGMP assay run with SNP incubation (HEK WC assay); type: cell-based; settings: for Emax at 10 µM: read-out: HEK WC Assay (% Emax at 10 uM/with 10 uM SNP); for Emax at 30 µM: read-out: HEK WC Assay (% Emax at 30 uM/with 10 uM SNP)
# T1 sequence (Q02153 whole entry): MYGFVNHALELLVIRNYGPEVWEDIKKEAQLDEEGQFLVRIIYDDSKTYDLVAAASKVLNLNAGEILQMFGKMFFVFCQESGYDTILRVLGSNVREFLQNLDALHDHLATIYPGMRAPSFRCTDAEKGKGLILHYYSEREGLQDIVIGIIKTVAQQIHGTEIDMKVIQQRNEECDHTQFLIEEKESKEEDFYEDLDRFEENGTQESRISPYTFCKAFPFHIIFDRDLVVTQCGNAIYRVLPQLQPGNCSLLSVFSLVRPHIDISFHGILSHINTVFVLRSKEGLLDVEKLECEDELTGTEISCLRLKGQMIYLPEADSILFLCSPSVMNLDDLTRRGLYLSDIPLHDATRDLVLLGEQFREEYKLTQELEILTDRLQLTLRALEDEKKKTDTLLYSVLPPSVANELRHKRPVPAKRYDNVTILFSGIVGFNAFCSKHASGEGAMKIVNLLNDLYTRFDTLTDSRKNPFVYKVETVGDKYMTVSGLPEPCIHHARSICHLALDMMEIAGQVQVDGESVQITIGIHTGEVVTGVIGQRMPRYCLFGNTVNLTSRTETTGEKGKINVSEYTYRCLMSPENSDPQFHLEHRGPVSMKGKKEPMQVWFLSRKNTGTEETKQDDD
# T1 sequence (Q02108 whole entry): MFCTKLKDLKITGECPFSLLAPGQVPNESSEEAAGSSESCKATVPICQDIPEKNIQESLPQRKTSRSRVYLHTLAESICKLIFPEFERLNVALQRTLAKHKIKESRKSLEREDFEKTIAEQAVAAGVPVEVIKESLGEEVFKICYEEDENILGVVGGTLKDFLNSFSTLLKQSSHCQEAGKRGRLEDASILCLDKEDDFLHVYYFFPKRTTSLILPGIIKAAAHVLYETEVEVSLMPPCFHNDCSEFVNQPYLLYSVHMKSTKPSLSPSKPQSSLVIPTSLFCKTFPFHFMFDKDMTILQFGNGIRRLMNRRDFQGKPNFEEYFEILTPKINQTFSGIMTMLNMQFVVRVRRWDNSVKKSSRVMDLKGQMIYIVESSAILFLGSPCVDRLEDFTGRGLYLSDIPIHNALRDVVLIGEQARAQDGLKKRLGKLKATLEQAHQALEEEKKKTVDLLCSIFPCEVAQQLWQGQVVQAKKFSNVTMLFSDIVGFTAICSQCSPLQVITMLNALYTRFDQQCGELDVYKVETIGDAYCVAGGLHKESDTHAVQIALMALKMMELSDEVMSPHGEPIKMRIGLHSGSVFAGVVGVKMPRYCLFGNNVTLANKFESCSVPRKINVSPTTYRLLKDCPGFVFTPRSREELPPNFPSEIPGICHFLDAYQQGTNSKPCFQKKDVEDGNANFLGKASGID
# How it was run: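 HEK293 cells with endogenous sGC were pretreated with 0.5 mM IBMX for 15 min at 37 °C, then exposed to test compound plus sodium nitroprusside for 10 min at 37 °C.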
# [3] = biological target: T1, soluble guanylate cyclase (sGC); test: sGC-HEK-cGMP assay run in the absence of SNP (HEK WC assay); type: cell-based; settings: no SNP, increase in the sGC receptor activity; for HEK WC Assay (fold increase at 10 μM): compound at 10 μM; for HEK WC Assay (fold increase at 30 μM): compound at 30 μM
# How it was run: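 HEK293 cells with endogenous sGC, preincubated 15 min at 37° C with 0.5 mM IBMX, then exposed to test compound 10 min at 37° C without SNP. Cells lysed in 0.1 M HCl; cGMP quantified by LC/MS against a standard curve. EC50 from concentration-response curves.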
# [4] = biological target: T2, Human soluble guanylate cyclase enzyme (hsGC) (Homo sapiens (Human), UniProt Q02108+Q02153); test: Purified human sGC enzyme activity assay; type: biochemical; settings: for sGC Enzyme (specific activity at 10 μM) / sGC Enzyme (fold increase at 10 μM without SNP): 10 μM compound; for sGC Enzyme (specific activity at 30 μM) / sGC Enzyme (fold increase at 30 μM without SNP): 30 μM compound
# T2 sequence (Q02153 whole entry): as the sequence (Q02153 whole entry) above
# T2 sequence (Q02108 whole entry): as the sequence (Q02108 whole entry) above
# How it was run: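 Purified human sGC (5 ng) incubated 30 min at 37° C with compound at 10 or 30 μM final in pH 8.0 Tris with 300 μM GTP, 2 mM MgCl2, 2 mM DTT and 1 mM IBMX, then stopped with cold methanol. cGMP quantified against a standard curve. Specific activity (nmol cGMP/mg sGC/min) expressed as fold-change over DMSO control.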
# [5] = biological target: T2, Human soluble guanylate cyclase enzyme (hsGC); test: Purified human sGC enzyme synergy assay in the presence of 1 μM sodium nitroprusside (SNP); type: biochemical; settings: with 1 μM SNP; for sGC Enzyme (fold increase at 10 μM with SNP): 10 μM compound; for sGC Enzyme (fold increase at 30 μM with SNP): 30 μM compound
# How it was run: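 Purified human sGC (5 ng) incubated 30 min at 37 °C with compounds at 10 or 30 μM, 1 μM sodium nitroprusside, 300 μM GTP and 1 mM IBMX in Tris pH 8.0 with MgCl2/DTT. cGMP quantified against a standard curve, and specific activity expressed as fold-change over DMSO control.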
Emax at 10 µM [2] [%],Emax at 30 µM [2] [%],HEK WC Assay (fold increase at 10 μM) [3],HEK WC Assay (fold increase at 30 μM) [3],sGC Enzyme (specific activity at 10 μM) [4],sGC Enzyme (fold increase at 10 μM without SNP) [4],sGC Enzyme (specific activity at 30 μM) [4],sGC Enzyme (fold increase at 30 μM without SNP) [4],sGC Enzyme (fold increase at 10 μM with SNP) [5],sGC Enzyme (fold increase at 30 μM with SNP) [5],SMILES,inhibition at 10 µM [1] [%]
0 to 10,10 to 20,A (A = no increase to <1 fold increase),C (C = 2 to <5 fold increase),B (B = 50 to <100),B (B = 2 to <5 fold increase),C (C = 100 to <200),C (C = 5 to <10 fold increase),,,Fc1ccccc1Cn1nc(-c2ccccn2)cc1-c1ccccn1 [Compound I-1],53.7
10 to 20,20 to 40,A (A = no increase to <1 fold increase),B (B = 1 to <2 fold increase),B (B = 50 to <100),B (B = 2 to <5 fold increase),A (A = 0 to <50),B (B = 2 to <5 fold increase),,,Fc1ccccc1Cn1nc(-c2ncccn2)cc1-c1ccccc1 [Compound I-2],101
10 to 20,20 to 40,A (A = no increase to <1 fold increase),D (D = 5 to <10 fold increase),E (E = 500 to <1000),B (B = 2 to <5 fold increase),E (E = 500 to <1000),C (C = 5 to <10 fold increase),B (B = 2 to <5 fold increase),C (C = 5 to <10 fold increase),Fc1ccccc1Cn1nc(-c2ncccn2)cc1-c1ccsc1 [Compound I-4],102
0 to 10,10 to 20,,,C (C = 100 to <200),A (A = no increase to <2 fold increase),C (C = 100 to <200),B (B = 2 to <5 fold increase),B (B = 2 to <5 fold increase),C (C = 5 to <10 fold increase),Nc1ccnc(-c2cc(-c3ccccn3)n(Cc3ccccc3F)n2)n1 [Compound I-31],93.2
20 to 40,20 to 40,,,B (B = 50 to <100),B (B = 2 to <5 fold increase),C (C = 100 to <200),C (C = 5 to <10 fold increase),C (C = 5 to <10 fold increase),D (D = equal or >10 fold increase),Fc1ccccc1Cn1nc(-c2ncccn2)cc1-c1cccs1 [Compound I-66],103

# Further lines, the compound ahead of its results:
SMILES,Emax at 10 µM [2] [%],Emax at 30 µM [2] [%],HEK WC Assay (fold increase at 10 μM) [3],HEK WC Assay (fold increase at 30 μM) [3],sGC Enzyme (specific activity at 10 μM) [4],sGC Enzyme (fold increase at 10 μM without SNP) [4],sGC Enzyme (specific activity at 30 μM) [4],sGC Enzyme (fold increase at 30 μM without SNP) [4],sGC Enzyme (fold increase at 10 μM with SNP) [5],sGC Enzyme (fold increase at 30 μM with SNP) [5],inhibition at 10 µM [1] [%]
N#Cc1cc(-c2ccccn2)nn1Cc1ccccc1F [Compound I-3],20 to 40,40 to 60,A (A = no increase to <1 fold increase),D (D = 5 to <10 fold increase),D (D = 200 to <500),B (B = 2 to <5 fold increase),,C (C = 5 to <10 fold increase),C (C = 5 to <10 fold increase),C (C = 5 to <10 fold increase),92
Fc1ccccc1Cn1nc(-c2ccccn2)cc1-c1ccccc1 [Compound I-5],0 to 10,10 to 20,A (A = no increase to <1 fold increase),A (A = no increase to <1 fold increase),D (D = 200 to <500),B (B = 2 to <5 fold increase),D (D = 200 to <500),B (B = 2 to <5 fold increase),B (B = 2 to <5 fold increase),B (B = 2 to <5 fold increase),55.6
Fc1ccccc1Cn1nc(-c2ccccn2)cc1-c1ccccc1F [Compound I-7],0 to 10,0 to 10,,,D (D = 200 to <500),B (B = 2 to <5 fold increase),D (D = 200 to <500),B (B = 2 to <5 fold increase),B (B = 2 to <5 fold increase),C (C = 5 to <10 fold increase),60.4
Fc1ccccc1Cn1nc(-c2ccccn2)cc1-c1ccsc1 [Compound I-26],20 to 40,40 to 60,,,D (D = 200 to <500),B (B = 2 to <5 fold increase),D (D = 200 to <500),C (C = 5 to <10 fold increase),C (C = 5 to <10 fold increase),D (D = equal or >10 fold increase),85.3
Fc1ccccc1Cn1nc(-c2ccccn2)cc1C1CCC1 [Compound I-42],0 to 10,10 to 20,,,D (D = 200 to <500),B (B = 2 to <5 fold increase),E (E = 500 to <1000),C (C = 5 to <10 fold increase),B (B = 2 to <5 fold increase),C (C = 5 to <10 fold increase),72.1
Fc1ccccc1Cn1nc(-c2ccccn2)cc1-c1nnco1 [Compound I-45],20 to 40,20 to 40,,,C (C = 100 to <200),A (A = no increase to <2 fold increase),C (C = 100 to <200),B (B = 2 to <5 fold increase),C (C = 5 to <10 fold increase),D (D = equal or >10 fold increase),94.9
Nc1ccnc(-c2cc(-c3ccsc3)n(Cc3ccccc3F)n2)n1 [Compound I-49],20 to 40,40 to 60,,,D (D = 200 to <500),C (C = 5 to <10 fold increase),E (E = 500 to <1000),D (D = equal or >10 fold increase),,,106
Fc1ccccc1Cn1nc(-c2ccccn2)cc1-c1ccco1 [Compound I-61],20 to 40,20 to 40,,,C (C = 100 to <200),B (B = 2 to <5 fold increase),D (D = 200 to <500),C (C = 5 to <10 fold increase),D (D = equal or >10 fold increase),D (D = equal or >10 fold increase),103
